In PubChem BioAssay AID1963847 (Molecular Pharmacology Branch, DTP, NCI, 2024):

System: 415267-285-R-J2-PDC complex spheroid viability
Assay: Anticancer human tumor 415267-285-R-J2-PDC patient-derived breast carcinoma cell line growth inhibition [POLQ]
Settings: for IC50: curve of first compound; for viability, T/C: stronger effect = lower value
Method: Multicellular complex tumor spheroid response to Polymerase (POL) inhibitors (novobiocin, ART-558, RP6685) in combination with a variety of drugs and investigational agents in selected tumor cell lines
The POL inhibitors (novobiocin, ART-558, and RP6685) were evaluated both individually and in combination with standard of care and investigational anticancer small molecules within a complex spheroid model of solid tumors. . Complex spheroids include a stromal component modeled by human endothelial cells (HUVEC) and fibroblasts modeled by human mesenchymal stem cells (MSCs). The concentration ranges selected for each drug and investigational agent were based upon clinically achievable concentrations if the clinical Cmax of the agent was known.
Compounds. The drugs and investigational agents: novobiocin (NSC847541), ART-558 (NSC835418), RP-6685 (NSC848927), peposertib (NSC802822), ceralasertib (NSC780249), elimusertib (NSC800525), camonsertib (NSC841442), AZD-1390 (NSC803789), olaparib (NSC753686), talazoparib (NSC767125), rucaparib (NSC756644), sotorasib (NSC818433), MRTX-1133 (NSC836407), SN-38 (NSC673596), topotecan (NSC609699), epotoside (NSC141540), doxorubicin (NSC123127), gemcitabine (NSC613327), 5-fluorouracil (NSC19893), paclitaxel (NSC125973), vemurafenib (NSC761431), MSA-2 (NSC828583), SN-011 (NSC837082), adavosertib (NSC754352), prexasertib (NSC758257), carboplatin (NSC241240) and oxaliplatin (NSC266046), were obtained from the National Cancer Institute (NCI) Developmental Therapeutics Program Chemical Repository (21). The FDA-approved anticancer drug set is available from the Developmental Therapeutics Program at https://dtp.cancer.gov/organization/dscb/obtaining/. […] The stock solutions were prepared in dimethyl sulfoxide (DMSO, Sigma-Aldrich, St. Louis, MO, cat. D2650), except for the platinum compounds which were prepared in saline (Quality Biological, Gaithersburg, MD, cat. 114-055-101), at 800-fold the tested concentration and stored at -70 degrees C prior to their use. All drugs and investigational agents were tested over a range starting from a high concentration at or near the clinical Cmax and decreasing in half-log increments. If the clinical Cmax for an agent had not been determined, the highest concentration tested was 10 microM, except for SN-38, which was tested at a high concentration of 1 microM.
Cell Culture. All cells were maintained in an incubator at 37 degrees C and 5% CO2 with 95% humidity. The PDC lines were cultured according to standard operating procedures established by the NCI PDMR (https://pdmr.cancer.gov). Table 3 of the manuscript, lists the cell lines along with the number of the three cell types plated to form the mct-spheroids and media for tumor cell growth. After thawing, all PDC lines, except 997537-175-T-J1-PDC and 415267-285-R-J2-PDC, were cultured in Matrigel-coated flasks prepared with a working solution of 1X Ham's F-12 nutrient mix, without supplementation (Thermo Fisher Scientific, cat. 11765054), 100 U/mL penicillin-streptomycin (Thermo Fisher Scientific, cat. 15140122), and 2.5% Matrigel (Corning Inc., Corning, NY, cat. 354248) for the first three passages. The two PDC lines 997537-175-T-J1-PDC and 415267-285-R-J2-PDC were cultured on uncoated flasks. The 857933-349-R-J2-PDC line was cultured in 6C/Colon 1B media containing advanced DMEM/F-12 (Thermo Fisher Scientific, cat. 12634028), 10 mM HEPES (Thermo Fisher Scientific, cat. 15630080), 1X GlutaMAX supplement (Thermo Fisher Scientific, cat. 35050061), 0.1 mg/mL primocin (InvivoGen, San Diego, CA, cat. ant-pm-2), 10% defined fetal bovine serum, heat inactivated (HyClone Laboratories Inc., Logan, UT, cat. SH30070.03HI), 50% L-WRN conditioned media (ATCC, cat. CRL-3276), 1.25 mM N-Acetyl-L-cysteine (Sigma-Aldrich, cat. A9165), 10 mM nicotinamide (Sigma-Aldrich, cat. N0636), 1X B-27 supplement (Thermo Fisher Scientific, cat. 17504044), 1X N-2 supplement (Thermo Fisher Scientific, cat. […]

[1] = second compound 0.0316 µM, first compound 0.0316 µM
[2] = second compound 0.0316 µM, first compound 0.1 µM
[3] = second compound 0.0316 µM, first compound 0.316 µM
[4] = second compound 0.0316 µM, first compound 1 µM
[5] = second compound 0.1 µM, first compound 0.0316 µM
[6] = second compound 0.1 µM, first compound 0.1 µM
[7] = second compound 0.1 µM, first compound 0.316 µM
[8] = second compound 0.1 µM, first compound 1 µM
[9] = second compound 0.316 µM, first compound 0.0316 µM
[10] = second compound 0.316 µM, first compound 0.1 µM
[11] = second compound 0.316 µM, first compound 0.316 µM
[12] = second compound 0.316 µM, first compound 1 µM
[13] = second compound 1 µM, first compound 0.0316 µM
[14] = second compound 1 µM, first compound 0.1 µM
[15] = second compound 1 µM, first compound 0.316 µM
[16] = second compound 1 µM, first compound 1 µM
[17] = second compound 3.16 µM, first compound 0.0316 µM
[18] = second compound 3.16 µM, first compound 0.1 µM
[19] = second compound 3.16 µM, first compound 0.316 µM
[20] = second compound 3.16 µM, first compound 1 µM
[21] = second compound 10 µM, first compound 0.0316 µM
[22] = second compound 10 µM, first compound 0.1 µM
[23] = second compound 10 µM, first compound 0.316 µM
[24] = second compound 10 µM, first compound 1 µM
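Note: spheroids exposed to compounds for one week before readout.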
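Throughout, for viability, T/C: luminescence used as stand-in measure of viable cells; 100% = DMSO vehicle control viability.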

SMILES: C=CCn1c(=O)c2cnc(Nc3ccc(N4CCN(C)CC4)cc3)nc2n1-c1cccc(C(C)(C)O)n1 + Cc1cccc(N(C)C(=O)C2C(O)CCN2c2nc(C)cc(C(F)(F)F)c2C#N)c1
- IC50 (second compound 0.0316 µM): 444 nM
- IC50 (second compound 0.1 µM): 475 nM
- IC50 (second compound 0.316 µM): 460 nM
- IC50 (second compound 1 µM): 486 nM
- IC50 (second compound 3.16 µM): 452 nM
- IC50 (second compound 10 µM): 425 nM
- viability, T/C (second compound 0.0316 µM, first compound 0.00316 µM): 103%
- viability, T/C (second compound 0.0316 µM, first compound 0.01 µM): 102%
- viability, T/C [1]: 104%
- viability, T/C [2]: 116%
- viability, T/C [3]: 67.6%
- viability, T/C [4]: 8%
- viability, T/C (second compound 0.1 µM, first compound 0.00316 µM): 96.6%
- viability, T/C (second compound 0.1 µM, first compound 0.01 µM): 102%
- viability, T/C [5]: 106%
- viability, T/C [6]: 112%
- viability, T/C [7]: 73.6%
- viability, T/C [8]: 6.74%
- viability, T/C (second compound 0.316 µM, first compound 0.00316 µM): 103%
- viability, T/C (second compound 0.316 µM, first compound 0.01 µM): 105%
- viability, T/C [9]: 109%
- viability, T/C [10]: 94.5%
- viability, T/C [11]: 71%
- viability, T/C [12]: 7.48%
- viability, T/C (second compound 1 µM, first compound 0.00316 µM): 103%
- viability, T/C (second compound 1 µM, first compound 0.01 µM): 103%
- viability, T/C [13]: 107%
- viability, T/C [14]: 108%
- viability, T/C [15]: 76.1%
- viability, T/C [16]: 6.25%
- viability, T/C (second compound 3.16 µM, first compound 0.00316 µM): 102%
- viability, T/C (second compound 3.16 µM, first compound 0.01 µM): 109%
- viability, T/C [17]: 108%
- viability, T/C [18]: 123%
- viability, T/C [19]: 69%
- viability, T/C [20]: 7.86%
- viability, T/C (second compound 10 µM, first compound 0.00316 µM): 108%
- viability, T/C (second compound 10 µM, first compound 0.01 µM): 106%
- viability, T/C [21]: 122%
- viability, T/C [22]: 114%
- viability, T/C [23]: 64.1%
- viability, T/C [24]: 9.37%

SMILES: COc1cc2cc(C(=O)CCC(=O)O)sc2cc1OC + Cc1cccc(N(C)C(=O)C2C(O)CCN2c2nc(C)cc(C(F)(F)F)c2C#N)c1
- IC50 (second compound 0.0316 µM): > 10000 nM
- IC50 (second compound 0.1 µM): > 10000 nM
- IC50 (second compound 0.316 µM): > 10000 nM
- IC50 (second compound 1 µM): > 10000 nM
- IC50 (second compound 3.16 µM): > 10000 nM
- IC50 (second compound 10 µM): > 10000 nM
- viability, T/C [1]: 101%
- viability, T/C [2]: 103%
- viability, T/C [3]: 101%
- viability, T/C [4]: 104%
- viability, T/C (second compound 0.0316 µM, first compound 3.16 µM): 116%
- viability, T/C (second compound 0.0316 µM, first compound 10 µM): 99%
- viability, T/C [5]: 103%
- viability, T/C [6]: 98.7%
- viability, T/C [7]: 98.7%
- viability, T/C [8]: 102%
- viability, T/C (second compound 0.1 µM, first compound 3.16 µM): 100%
- viability, T/C (second compound 0.1 µM, first compound 10 µM): 101%
- viability, T/C [9]: 99.7%
- viability, T/C [10]: 107%
- viability, T/C [11]: 101%
- viability, T/C [12]: 104%
- viability, T/C (second compound 0.316 µM, first compound 3.16 µM): 91.5%
- viability, T/C (second compound 0.316 µM, first compound 10 µM): 109%
- viability, T/C [13]: 111%
- viability, T/C [14]: 101%
- viability, T/C [15]: 95.3%
- viability, T/C [16]: 103%
- viability, T/C (second compound 1 µM, first compound 3.16 µM): 100%
- viability, T/C (second compound 1 µM, first compound 10 µM): 100%
- viability, T/C [17]: 110%
- viability, T/C [18]: 112%
- viability, T/C [19]: 99.1%
- viability, T/C [20]: 102%
- viability, T/C (second compound 3.16 µM, first compound 3.16 µM): 97.3%
- viability, T/C (second compound 3.16 µM, first compound 10 µM): 115%
- viability, T/C [21]: 98.8%
- viability, T/C [22]: 112%
- viability, T/C [23]: 109%
- viability, T/C [24]: 105%
- viability, T/C (second compound 10 µM, first compound 3.16 µM): 103%
- viability, T/C (second compound 10 µM, first compound 10 µM): 109%
